Values quoted from earlier work as cited in patent publication US8178083B2, “Treatment of optic neuritis” (Ares Trading, S.A., priority 2005, dated 2012).

Test system: patients with acute isolated unilateral optic neuritis

C[C@]12C=CC(=O)C=C1CC[C@@H]1[C@@H]2C(=O)C[C@@]2(C)[C@H]1CC[C@]2(O)C(=O)CO [prednisone]
risk of a new optic neuritis attack in the fellow eye versus placebo-treated group (oral prednisone 1 mg/kg per day for 14 days): more than double
patients who developed new bouts of optic neuritis (in either the affected or fellow eye) (within 2 years of follow-up): 30%
